Data: ChEMBL document CHEMBL5512604, “Small molecules targeting selected histone methyltransferases (HMTs) for cancer treatment: Current progress and novel strategies” (Eur J Med Chem, 2024)
Each block holds one compound with its values, some of them ahead of it.

Assays:
[1] = target: Histone-lysine N-methyltransferase EZH2 (Homo sapiens, UniProt Q15910); test: Displacement of [3H-SAM] from full-length EZH2 (2 to 746 residues) (unknown origin) using a core histone substrate
[2] = target: T1, Histone-lysine N-methyltransferase EZH1 (Homo sapiens, UniProt Q92800); test: Displacement of [3H-SAM] from full-length EZH1 (2 to 746 residues) (unknown origin) using a core histone substrate
T1 sequence (Q92800 whole entry): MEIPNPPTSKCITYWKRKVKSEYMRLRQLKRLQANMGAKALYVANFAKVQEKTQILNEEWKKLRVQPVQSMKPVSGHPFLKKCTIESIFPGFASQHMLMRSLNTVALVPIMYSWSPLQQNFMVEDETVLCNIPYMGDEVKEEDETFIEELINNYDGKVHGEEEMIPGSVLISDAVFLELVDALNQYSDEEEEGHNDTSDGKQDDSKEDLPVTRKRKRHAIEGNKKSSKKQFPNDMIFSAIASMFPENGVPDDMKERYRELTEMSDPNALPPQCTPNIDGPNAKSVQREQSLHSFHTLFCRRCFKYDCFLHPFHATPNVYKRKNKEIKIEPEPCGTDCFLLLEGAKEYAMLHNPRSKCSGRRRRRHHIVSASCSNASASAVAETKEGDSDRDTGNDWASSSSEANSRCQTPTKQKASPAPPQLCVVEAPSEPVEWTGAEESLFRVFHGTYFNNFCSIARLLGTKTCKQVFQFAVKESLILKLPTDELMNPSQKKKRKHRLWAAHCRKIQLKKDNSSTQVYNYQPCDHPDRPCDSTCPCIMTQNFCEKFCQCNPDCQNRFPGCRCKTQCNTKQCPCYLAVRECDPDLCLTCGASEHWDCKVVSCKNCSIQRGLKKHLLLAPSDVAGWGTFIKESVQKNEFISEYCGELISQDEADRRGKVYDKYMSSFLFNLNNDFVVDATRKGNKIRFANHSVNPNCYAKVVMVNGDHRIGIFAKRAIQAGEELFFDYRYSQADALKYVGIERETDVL

MDA-MB-453 = test: Antiproliferative activity against human MDA-MB-453 cells assessed as inhibition of cell viability incubated for 5 days by CCK8 assay; format: functional, cell-based; conditions: MDA-MB-453, 120 h
[3] = target: von Hippel-Lindau disease tumor suppressor/Histone-lysine N-methyltransferase EZH2 (Homo sapiens, UniProt Q15910+P40337); test: PROTAC activity at VHL/EZH2 in human MDA-MB-453 cells assessed as protein degradation incubated for 48 hrs by Western blot analysis; format: cell-based
Chain of von Hippel-Lindau disease tumor suppressor/Histone-lysine N-methyltransferase EZH2 (Q15910 whole entry): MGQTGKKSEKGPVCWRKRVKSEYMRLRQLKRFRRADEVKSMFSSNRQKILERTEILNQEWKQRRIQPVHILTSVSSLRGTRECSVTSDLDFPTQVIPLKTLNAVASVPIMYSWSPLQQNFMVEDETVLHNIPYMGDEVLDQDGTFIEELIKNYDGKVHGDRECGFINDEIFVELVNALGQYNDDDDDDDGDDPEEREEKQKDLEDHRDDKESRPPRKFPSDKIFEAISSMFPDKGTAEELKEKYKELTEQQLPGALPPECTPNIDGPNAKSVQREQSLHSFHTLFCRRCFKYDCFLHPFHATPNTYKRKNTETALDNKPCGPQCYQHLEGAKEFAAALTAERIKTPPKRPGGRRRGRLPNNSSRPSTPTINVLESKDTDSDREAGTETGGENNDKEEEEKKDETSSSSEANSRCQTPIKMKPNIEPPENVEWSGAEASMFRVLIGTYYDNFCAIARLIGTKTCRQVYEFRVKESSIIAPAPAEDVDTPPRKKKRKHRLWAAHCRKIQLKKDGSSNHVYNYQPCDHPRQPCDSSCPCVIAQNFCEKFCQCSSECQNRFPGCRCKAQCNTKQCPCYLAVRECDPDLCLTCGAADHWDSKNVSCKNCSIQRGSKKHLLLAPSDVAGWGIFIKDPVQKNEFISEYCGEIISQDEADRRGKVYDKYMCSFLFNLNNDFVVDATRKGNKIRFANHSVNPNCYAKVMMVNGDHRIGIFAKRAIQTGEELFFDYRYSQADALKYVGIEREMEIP
Chain of von Hippel-Lindau disease tumor suppressor/Histone-lysine N-methyltransferase EZH2 (P40337 whole entry): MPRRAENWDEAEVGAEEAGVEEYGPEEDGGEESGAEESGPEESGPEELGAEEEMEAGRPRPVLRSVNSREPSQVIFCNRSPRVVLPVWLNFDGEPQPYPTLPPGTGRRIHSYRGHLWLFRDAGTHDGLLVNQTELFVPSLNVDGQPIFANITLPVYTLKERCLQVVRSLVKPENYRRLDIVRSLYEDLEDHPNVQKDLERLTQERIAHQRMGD

[4] = target: Protein arginine N-methyltransferase 5 (Homo sapiens, UniProt O14744); test: Inhibition of PRMT5 (unknown origin) by HotSpot profiling analysis
Chain of Protein arginine N-methyltransferase 5 (O14744 whole entry): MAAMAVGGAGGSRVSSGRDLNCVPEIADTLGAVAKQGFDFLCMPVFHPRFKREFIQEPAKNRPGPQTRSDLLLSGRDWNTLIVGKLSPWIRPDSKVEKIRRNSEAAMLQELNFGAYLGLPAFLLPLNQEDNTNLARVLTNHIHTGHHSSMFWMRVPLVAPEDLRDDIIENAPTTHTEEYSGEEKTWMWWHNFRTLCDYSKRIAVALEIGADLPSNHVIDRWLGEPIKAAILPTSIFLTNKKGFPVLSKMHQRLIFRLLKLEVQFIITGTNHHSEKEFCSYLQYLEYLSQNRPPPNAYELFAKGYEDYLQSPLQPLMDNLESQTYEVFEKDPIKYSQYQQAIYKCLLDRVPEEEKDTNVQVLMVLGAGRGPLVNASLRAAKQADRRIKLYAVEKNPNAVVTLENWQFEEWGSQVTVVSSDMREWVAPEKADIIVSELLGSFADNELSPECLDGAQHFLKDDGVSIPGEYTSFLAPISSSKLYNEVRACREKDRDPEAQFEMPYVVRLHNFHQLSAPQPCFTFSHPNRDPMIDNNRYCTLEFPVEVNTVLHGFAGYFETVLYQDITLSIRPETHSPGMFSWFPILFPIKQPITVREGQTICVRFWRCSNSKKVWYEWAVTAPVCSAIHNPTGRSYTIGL

SU-DHL-6 [5] = test: Antiproliferative activity against human SU-DHL-6 cells; format: functional, cell-based
SU-DHL-6 [6] = test: Potency index, ratio of EPZ6438 IC50 to test compound IC50 for antiproliferative activity against human SU-DHL-6 cells; format: functional
in vitro = conditions: human, HEK293 cells
Histone deacetylase [7] = test: Inhibition of HDAC in human HeLa cells using Boc-K(Ac)-AMC as substrate; format: cell-based
Histone deacetylase [8] = test: Inhibition of HDAC in human K562 cells using Boc-K(Ac)-AMC as substrate; format: cell-based
MCF7 = test: Antiproliferative activity against human MCF7 cells assessed as inhibition of cell growth incubated for 72 hrs; format: functional, cell-based; conditions: MCF7, 72 h
A549 = test: Antiproliferative activity against human A549 cells assessed as inhibition of cell growth incubated for 72 hrs; format: functional, cell-based; conditions: A549, 72 h
MDA-MB-231 = test: Antiproliferative activity against human MDA-MB-231 cells assessed as inhibition of cell growth incubated for 72 hrs; format: functional, cell-based; conditions: MDA-MB-231, 72 h
[9] = target: T2, Histone-lysine N-methyltransferase EHMT2 (Homo sapiens, UniProt Q96KQ7); test: Inhibition of G9a in human MDA-MB-231 cells assessed as decrease in H3K9Me2 level by ICW assay; format: cell-based
T2 sequence (Q96KQ7 whole entry): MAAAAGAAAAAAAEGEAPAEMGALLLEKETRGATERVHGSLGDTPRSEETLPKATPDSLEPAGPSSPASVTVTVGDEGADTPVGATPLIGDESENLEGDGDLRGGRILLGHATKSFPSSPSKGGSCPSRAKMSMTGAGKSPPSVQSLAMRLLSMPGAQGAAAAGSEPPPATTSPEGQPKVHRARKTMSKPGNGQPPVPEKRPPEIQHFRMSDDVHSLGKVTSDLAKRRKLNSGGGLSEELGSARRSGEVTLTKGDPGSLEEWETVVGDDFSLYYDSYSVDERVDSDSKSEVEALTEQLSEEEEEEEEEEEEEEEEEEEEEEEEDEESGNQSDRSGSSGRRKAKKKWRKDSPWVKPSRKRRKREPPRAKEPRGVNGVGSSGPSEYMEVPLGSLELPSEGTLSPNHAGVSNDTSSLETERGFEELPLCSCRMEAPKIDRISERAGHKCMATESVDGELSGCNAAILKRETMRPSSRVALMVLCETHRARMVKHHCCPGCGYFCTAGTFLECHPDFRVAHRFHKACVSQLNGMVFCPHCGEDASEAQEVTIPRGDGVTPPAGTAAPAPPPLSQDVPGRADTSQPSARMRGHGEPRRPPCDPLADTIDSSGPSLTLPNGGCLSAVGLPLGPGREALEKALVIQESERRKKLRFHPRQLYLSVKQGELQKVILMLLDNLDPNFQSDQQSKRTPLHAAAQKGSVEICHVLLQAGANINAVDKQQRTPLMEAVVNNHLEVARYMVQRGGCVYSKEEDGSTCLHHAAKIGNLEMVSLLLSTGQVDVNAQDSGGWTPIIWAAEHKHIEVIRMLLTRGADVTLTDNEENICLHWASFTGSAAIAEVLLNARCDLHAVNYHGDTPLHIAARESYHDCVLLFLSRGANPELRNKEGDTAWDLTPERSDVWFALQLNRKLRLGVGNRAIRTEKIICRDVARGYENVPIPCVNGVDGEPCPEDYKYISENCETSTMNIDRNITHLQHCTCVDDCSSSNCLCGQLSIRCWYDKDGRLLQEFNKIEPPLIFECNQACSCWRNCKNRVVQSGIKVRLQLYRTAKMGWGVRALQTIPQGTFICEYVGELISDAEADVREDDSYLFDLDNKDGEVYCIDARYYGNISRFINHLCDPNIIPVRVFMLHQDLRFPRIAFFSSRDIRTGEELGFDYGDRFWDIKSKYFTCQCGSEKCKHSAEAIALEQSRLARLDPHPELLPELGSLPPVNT

[10] = target: Bromodomain-containing protein 4 (Homo sapiens, UniProt O60885); test: Induction of BRD4 degradation in human 231MFP cells; format: cell-based

Chain of Histone-lysine N-methyltransferase EZH2 (Q15910 whole entry, the tested form may be a part): as the sequence (Q15910 whole entry) above

SMILES: N=C(N)NCCC[C@H](N)C(=O)NCC(=O)N[C@@H](CCCN)C(=O)N[C@H](CCCNC(=N)NCCCSC[C@H]1O[C@@H](n2cnc3c(N)ncnc32)[C@H](O)[C@@H]1O)C(N)=O
- IC50 [4]: 0.00042 µM

SMILES: CCN(c1cc(-c2ccc(CN3CCN(C(=O)c4cnn(CCOCCOCCOCCNC(=O)CN5CCN(C(=O)N6C(c7ccc(OC)cc7OC(C)C)=N[C@H](c7ccc(Cl)cc7)[C@@H]6c6ccc(Cl)cc6)CC5=O)n4)CC3)cc2)cc(C(=O)NCc2c(C)cc(C)[nH]c2=O)c1C)C1CCOCC1
- IC50 (SU-DHL-6 [5]): 3.75 µM
- Ratio IC50 (SU-DHL-6 [6]): 6

SMILES: Cc1sc2c(c1C)C(c1ccc(Cl)cc1)=N[C@H](CC(=O)NCCCCOc1ccc(C3CC(c4ccc(Br)cc4)=NN3C(=O)CCl)cc1)c1nnc(C)n1-2 (stereo partly specified)
- DC50 [10]: 14 µM

Results, then the compound that gave them:

- IC50 [1]: 0.062 µM
- IC50 [2]: 0.0086 µM
- IC50 (MDA-MB-453): 2.3 µM
- DC50 [3]: 0.14 µM
SMILES: CCN(c1cc(-c2ccc(CN3CCN(C(=O)CCCCCCCC(=O)N[C@H](C(=O)N4C[C@H](O)C[C@H]4C(=O)NCc4ccc(-c5scnc5C)cc4)C(C)(C)C)CC3)cc2)cc(C(=O)NCc2c(C)cc(C)[nH]c2=O)c1C)C1CCOCC1

- IC50 at 72 h (in vitro): 19.9 µM
- IC50 (Histone deacetylase [7]): 13.8 µM
- IC50 (Histone deacetylase [8]): 5.73 µM
- IC50 (MCF7): 10 µM
- IC50 (A549): 10 µM
- IC50 (MDA-MB-231): 10 µM
- IC50 [9]: 7.14 µM
SMILES: COc1cc2nc(NCCNC(=O)CCCCC(=O)NO)nc(NC3CCN(Cc4ccccc4)CC3)c2cc1OC

- IC50 (SU-DHL-6 [5]): 21.9 µM
SMILES: CCN(c1cc(-c2ccc(CN3CCOCC3)cc2)cc(C(=O)NCc2c(C)cc(C)[nH]c2=O)c1C)C1CCOCC1 [TAZEMETOSTAT]
